Test system: Caenorhabditis elegans
Test: Primary screen, infrared-based (WMicroTracker ONE) C. elegans L4 motility assay at 40 µM
Assay type: cell-based, Caenorhabditis elegans (Bristol N2)
Conditions: primary screen at 40 µM
Description: Methods to cultivate C. elegans (Bristol N2) and synchronize growth to the L4 stage were as described. WMicroTracker ONE (Phylumtech, Argentina) detects movement by measuring the scattering of infrared light beams that are projected into each well of a microtiter plate (two 880 nm beams/well in a 96w plate).
Synchronized C. elegans L4 were detached from agar and collected in M9 buffer. Worms were centrifuged for 1 min at 1,900 g and washed in S medium to decrease the concentration of E. coli OP50 that might interfere with infrared detection. Control and assay compounds (1 µL) in DMSO (Fisher Scientific, Cat# BP231-100) were spotted into each well of a clear, flat-bottomed 96-well polystyrene plate (Fisherbrand, Cat# FB012931). DMSO (1%) was used as the negative control. Approximately 70 L4 in 100 µL S medium were added per well. First pass screens employed 40 µM compound, and motility was measured every 20 min for 24 h in the WMicroTracker ONE reader in which the temperature was 25 ± 1 °C. Motility was normalized relative to the DMSO controls. Hits were defined as compounds that decreased motility to ≤ 25% of that in DMSO control worms.

[1] = C. elegans L4, WMicroTracker ONE

O[C@@H](c1cc(C(F)(F)F)nc2c(C(F)(F)F)cccc12)[C@H]1CCCCN1 [MMV000014]
C. elegans Mean motility vs. DMSO control (%) (C. elegans L4): 88.32%

O[C@@H](c1cc(C(F)(F)F)nc2c(C(F)(F)F)cccc12)[C@H]1CCCCN1 [MMV000016]
C. elegans Mean motility vs. DMSO control (%) [1]: 108.37%

NS(=O)(=O)c1cc2c(cc1Cl)N=CNS2(=O)=O [MMV001901]
C. elegans Mean motility vs. DMSO control (%) [1]: 96.35%

CCCCc1oc2ccccc2c1C(=O)c1cc(I)c(OCCN(CC)CC)c(I)c1 [MMV001992]
C. elegans Mean motility vs. DMSO control (%) (C. elegans L4): 67.16%

Cc1onc(-c2ccccc2)c1-c1ccc(S(N)(=O)=O)cc1 [MMV002260]
C. elegans Mean motility vs. DMSO control (%) (C. elegans L4): 95.37%

Cc1ncc([N+](=O)[O-])n1CC(C)O (stereo not shown) [MMV002287]
C. elegans Mean motility vs. DMSO control (%) (C. elegans L4): 78.09%

OC(Cn1cncn1)(Cn1cncn1)c1ccc(F)cc1F [MMV002337]
C. elegans Mean motility vs. DMSO control (%) [1]: 103.8%

COc1ccc(Cc2nccc3cc(OC)c(OC)cc23)cc1OC [MMV002798]
C. elegans Mean motility vs. DMSO control (%) [1]: 96.9%

COc1cc2c3cc1Oc1c(OC)c(OC)cc4c1C(Cc1ccc(O)c(c1)Oc1ccc(cc1)CC3N(C)CC2)N(C)CC4.Cl (stereo not shown) [MMV007474]
C. elegans Mean motility vs. DMSO control (%) (C. elegans L4): 94.2%

Cc1ccc(NC(=O)c2ccc(CN3CCN(C)CC3)cc2)cc1Nc1nccc(-c2cccnc2)n1 [MMV009948]
C. elegans Mean motility vs. DMSO control (%) [1]: 98.37%

CN1CCCC1CCO[C@](C)(c1ccccc1)c1ccc(Cl)cc1 (stereo partly shown) [MMV637229]
C. elegans Mean motility vs. DMSO control (%) [1]: 98.88%

CCC(C)n1ncn(-c2ccc(N3CCN(c4ccc(OCC5COC(Cn6cncn6)(c6ccc(Cl)cc6Cl)O5)cc4)CC3)cc2)c1=O (stereo not shown) [MMV637528]
C. elegans Mean motility vs. DMSO control (%) [1]: 97.65%

CC(=O)N1CCN(c2ccc(OC[C@@H]3CO[C@@](Cn4ccnc4)(c4ccc(Cl)cc4Cl)O3)cc2)CC1 [MMV637533]
C. elegans Mean motility vs. DMSO control (%) [1]: 113.2%

CC(C)(C)NC(=O)[C@@H]1CN(Cc2cccnc2)CCN1C[C@@H](O)C[C@@H](Cc1ccccc1)C(=O)N[C@H]1c2ccccc2C[C@H]1O [MMV659198]
C. elegans Mean motility vs. DMSO control (%) [1]: 103.91%

CO[C@@H](C(=O)N1Cc2[nH]nc(NC(=O)c3ccc(N4CCN(C)CC4)cc3)c2C1)c1ccccc1 [MMV676600]
C. elegans Mean motility vs. DMSO control (%) [1]: 100.25%

CC[C@@H]([C@H](C)O)n1ncn(-c2ccc(N3CCN(c4ccc(OC[C@@H]5CO[C@@](Cn6cncn6)(c6ccc(F)cc6F)C5)cc4)CC3)cc2)c1=O [MMV688774]
C. elegans Mean motility vs. DMSO control (%) (C. elegans L4): 86.8%

CC(=O)Oc1ccccc1C(=O)Nc1ncc([N+](=O)[O-])s1 [MMV688991]
C. elegans Mean motility vs. DMSO control (%) [1]: 112.67%

CC(C)C[C@H](NC(=O)[C@@H](NC(=O)c1cccc(-c2ccccc2)n1)[C@@H](C)O)B(O)O [MMV690548]
C. elegans Mean motility vs. DMSO control (%) [1]: 97.97%

O=C(NC1CCCc2c1[nH]c1ccc(Cl)cc21)c1ccccn1 (stereo not shown) [MMV690621]
C. elegans Mean motility vs. DMSO control (%) (C. elegans L4): 85.65%

CNCc1[cH-]ccc1CNc1ccnc2cc(Cl)ccc12.[Fe+2].c1cc[cH-]c1 [MMV892669]
C. elegans Mean motility vs. DMSO control (%) [1]: 102.88%

O=C(Nc1ncccc1O)c1ccc(N2CCOCC2)nc1 [MMV1103183]
C. elegans Mean motility vs. DMSO control (%) [1]: 99.33%

Cn1cc(CN2CCc3c(c(C(=O)NCc4nccs4)nn3Cc3ccccc3)C2)c2ccccc21 [MMV1167451]
C. elegans Mean motility vs. DMSO control (%) (C. elegans L4): 84.51%

Reference: article PMC12502323, “Discovery of small molecules with anthelmintic potential in the Medicines for Malaria Venture’s COVID and Global Health Priority Boxes using an infrared-based assay for Caenorhabditis elegans motility” (BMC Research Notes, 2025)
